Measurements: publication PMC6923382, “Small molecules that inhibit TNF signalling by stabilising an asymmetric form of the trimer” (Nature Communications, 2019)
Read-outs that look alike come from different tables or passages of the source.

Assay: Blood exposure of UCB-9260 in the mouse models
Format: in vivo
Settings: mouse, blood

Cc1ccc(C)c(Cn2c(C(O)c3ccncc3)nc3ccc(-c4cnn(C)c4)cc32)c1 (stereo not drawn) [UCB-9260]
concentration at 0.5 h (Balb/c, oral, 10 mg/kg, 10 mg/kg p.o., mouse TNF neutrophilia model, Fu 2.4%, read-out: Blood concentration 0.5h post dose (free)): 32 ± 2 nM
concentration at 0.5 h (Balb/c, oral, 10 mg/kg, 10 mg/kg p.o., mouse TNF neutrophilia model, mean n=3 ± s.e.m., read-out: Blood concentration 0.5h post dose total): 1320 nM
concentration at 0.5 h (Balb/c, oral, 10 mg/kg, mouse TNF neutrophilia model, individual mice, 0.5h post dose, read-out: Total exposure): 1220 nM
concentration at 0.5 h (Balb/c, oral, 10 mg/kg, mouse TNF neutrophilia model, individual mice, read-out: Free exposure): 35.9 nM
concentration at 0.5 h (Balb/c, oral, 30 mg/kg, 30 mg/kg p.o., mouse TNF neutrophilia model, Fu 2.4%, read-out: Blood concentration 0.5h post dose (free)): 225 ± 23 nM
concentration at 0.5 h (Balb/c, oral, 30 mg/kg, 30 mg/kg p.o., mouse TNF neutrophilia model, mean n=3 ± s.e.m., read-out: Blood concentration 0.5h post dose total): 9360 nM
concentration at 0.5 h (Balb/c, oral, 30 mg/kg, mouse TNF neutrophilia model, individual mice, 0.5h post dose, read-out: Total exposure): 9980 nM
concentration at 0.5 h (Balb/c, oral, 30 mg/kg, mouse TNF neutrophilia model, individual mice, read-out: Free exposure): 254 nM
concentration at 0.5 h (Balb/c, oral, 100 mg/kg, 100 mg/kg p.o., human TNF neutrophilia model, Fu 2.4%, read-out: Blood concentration 0.5h post dose (free)): 716 ± 93 nM
concentration at 0.5 h (Balb/c, oral, 100 mg/kg, 100 mg/kg p.o., human TNF neutrophilia model, mean n=3 ± s.e.m., read-out: Blood concentration 0.5h post dose total): 29800 nM
concentration at 0.5 h (Balb/c, oral, 100 mg/kg, 100 mg/kg p.o., mouse TNF neutrophilia model, Fu 2.4%, read-out: Blood concentration 0.5h post dose (free)): 1350 nM
concentration at 0.5 h (Balb/c, oral, 100 mg/kg, 100 mg/kg p.o., mouse TNF neutrophilia model, mean ± s.e.m., read-out: Blood concentration 0.5h post dose total): 56100 nM
concentration at 0.5 h (Balb/c, oral, 100 mg/kg, human TNF neutrophilia model, individual mice, 0.5h post dose, read-out: Total exposure): 29100 nM
concentration at 0.5 h (Balb/c, oral, 100 mg/kg, human TNF neutrophilia model, individual mice, read-out: Free exposure): 886 nM
concentration at 0.5 h (Balb/c, oral, 300 mg/kg, 300 mg/kg p.o., human TNF neutrophilia model, Fu 2.4%, read-out: Blood concentration 0.5h post dose (free)): 1190 nM
concentration at 0.5 h (Balb/c, oral, 300 mg/kg, 300 mg/kg p.o., human TNF neutrophilia model, mean n=3 ± s.e.m., read-out: Blood concentration 0.5h post dose total): 49500 nM
concentration at 0.5 h (Balb/c, oral, 300 mg/kg, 300 mg/kg p.o., mouse TNF neutrophilia model, Fu 2.4%, read-out: Blood concentration 0.5h post dose (free)): 1270 nM
concentration at 0.5 h (Balb/c, oral, 300 mg/kg, 300 mg/kg p.o., mouse TNF neutrophilia model, mean n=3 ± s.e.m., read-out: Blood concentration 0.5h post dose total): 53000 nM
concentration at 0.5 h (Balb/c, oral, 300 mg/kg, human TNF neutrophilia model, individual mice, 0.5h post dose, read-out: Total exposure): 41500 nM
concentration at 0.5 h (Balb/c, oral, 300 mg/kg, human TNF neutrophilia model, individual mice, read-out: Free exposure): 1190 nM
concentration at 0.5 h (Balb/c, oral, 300 mg/kg, mouse TNF neutrophilia model, individual mice, 0.5h post dose, read-out: Total exposure): 63000 nM
concentration at 0.5 h (Balb/c, oral, 300 mg/kg, mouse TNF neutrophilia model, individual mice, read-out: Free exposure): 1170 nM
concentration at 1 h (male, Balb/c, oral, 10 mg/kg, 10 mg/kg p.o., zymosan model, Fu 2.4%, read-out: Blood concentration 1h post dose (free)): 2 ± 0.4 nM
concentration at 1 h (male, Balb/c, oral, 10 mg/kg, 10 mg/kg p.o., zymosan model, mean n=8 ± s.e.m., read-out: Blood concentration 1h post dose (total)): 86 ± 15 nM
concentration at 1 h (male, Balb/c, oral, 30 mg/kg, 30 mg/kg p.o., zymosan model, Fu 2.4%, read-out: Blood concentration 1h post dose (free)): 70 ± 7 nM
concentration at 1 h (male, Balb/c, oral, 30 mg/kg, 30 mg/kg p.o., zymosan model, mean n=8 ± s.e.m., read-out: Blood concentration 1h post dose (total)): 2900 nM
concentration at 1 h (male, Balb/c, oral, 30 mg/kg, zymosan model, individual mice, read-out: free exposure 1h post dose): 46.8 nM
concentration at 1 h (male, Balb/c, oral, 30 mg/kg, zymosan model, individual mice, read-out: total exposure 1h post dose): 1950 nM
concentration at 1 h (male, Balb/c, oral, 100 mg/kg, 100 mg/kg p.o., zymosan model, Fu 2.4%, read-out: Blood concentration 1h post dose (free)): 630 ± 98 nM
concentration at 1 h (male, Balb/c, oral, 100 mg/kg, 100 mg/kg p.o., zymosan model, mean n=8 ± s.e.m., read-out: Blood concentration 1h post dose (total)): 26300 nM
concentration at 1 h (male, Balb/c, oral, 300 mg/kg, 300 mg/kg p.o., zymosan model, Fu 2.4%, read-out: Blood concentration 1h post dose (free)): 677 ± 121 nM
concentration at 1 h (male, Balb/c, oral, 300 mg/kg, 300 mg/kg p.o., zymosan model, mean n=8 ± s.e.m., read-out: Blood concentration 1h post dose (total)): 28200 nM
concentration at 1 h (150 mg/kg, 150 mg/kg B.I.D., CAIA model, mean ± s.e.m., read-out: Blood concentration total, 1h post dose): 17300 nM
concentration at 6 h (150 mg/kg, 150 mg/kg B.I.D., CAIA model, mean ± s.e.m., read-out: Blood concentration total, 6h post dose): 9970 nM
concentration at 1 h (150 mg/kg, 150 mg/kg B.I.D., CAIA model, read-out: Blood concentration (free), 1h post dose): 415 ± 100 nM
concentration at 6 h (150 mg/kg, 150 mg/kg B.I.D., CAIA model, read-out: Blood concentration (free), 6h post dose): 239 ± 101 nM
concentration at 0.5 h (oral, 10 mg/kg, 10 mg/kg p.o., human TNF neutrophilia model, Fu 2.4%, read-out: Blood concentration 0.5h post dose (free)): 20 ± 4 nM
concentration at 0.5 h (oral, 30 mg/kg, 30 mg/kg p.o., human TNF neutrophilia model, Fu 2.4%, read-out: Blood concentration 0.5h post dose (free)): 203 ± 59 nM
concentration at 0.5 h (oral, 30 mg/kg, 30 mg/kg p.o., human TNF neutrophilia model, mean n=3 ± s.e.m., read-out: Blood concentration 0.5h post dose total): 8460 nM
